From ChEMBL document CHEMBL3608244, “Left-Hand Side Exploration of Novel Bacterial Topoisomerase Inhibitors to Improve Selectivity against hERG Binding” (ACS Med Chem Lett, 2015)
Converted amounts (≈) assume the structure as drawn.

Columns and labels:
[1] = test system: Mycobacterium tuberculosis; assay: Antimycobacterial activity against Mycobacterium tuberculosis H37Rv ATCC 27294 incubated for 7 days by microdilution method; assay type: functional; settings: H37Rv ATCC 27294, 168 h
[2] = target: DNA gyrase subunit A/DNA gyrase subunit B (Mycobacterium tuberculosis (strain ATCC 25618 / H37Rv), UniProt P9WG45+P9WG47); assay: Inhibition of Mycobacterium tuberculosis H37Rv DNA gyrase assessed as supercoiling of pBR322 DNA after 90 mins by agarose gel electrophoresis method
[3] = target: Voltage-gated inwardly rectifying potassium channel KCNH2 (Homo sapiens, UniProt Q12809)
Description: Inhibition of human ERG by IonWorks assay

Caco-2 = assay: Permeability across human Caco2 cells; assay type: ADME, cell-based
[4] = Solubility of the compound; assay type: physicochemical
[5] = test system: Mycobacterium tuberculosis; assay: Antimycobacterial activity against Mycobacterium tuberculosis in acute mouse model of tuberculosis assessed as bacteria killing effect at 100 mg/kg, po bid administered for 10 days relative to early control; assay type: functional
[6] = test system: Mycobacterium tuberculosis; assay: Antimycobacterial activity against Mycobacterium tuberculosis infected in human THP1 cells assessed as bacteria killing effect at 1 to 16 ug/ml; assay type: functional, THP-1
[7] = test system: Mycobacterium tuberculosis; assay: Antimycobacterial activity against Mycobacterium tuberculosis infected in human THP1 cells assessed as bacteria killing effect; assay type: functional, organism-based; settings: THP-1

Chain of Voltage-gated inwardly rectifying potassium channel KCNH2 (Q12809 whole entry): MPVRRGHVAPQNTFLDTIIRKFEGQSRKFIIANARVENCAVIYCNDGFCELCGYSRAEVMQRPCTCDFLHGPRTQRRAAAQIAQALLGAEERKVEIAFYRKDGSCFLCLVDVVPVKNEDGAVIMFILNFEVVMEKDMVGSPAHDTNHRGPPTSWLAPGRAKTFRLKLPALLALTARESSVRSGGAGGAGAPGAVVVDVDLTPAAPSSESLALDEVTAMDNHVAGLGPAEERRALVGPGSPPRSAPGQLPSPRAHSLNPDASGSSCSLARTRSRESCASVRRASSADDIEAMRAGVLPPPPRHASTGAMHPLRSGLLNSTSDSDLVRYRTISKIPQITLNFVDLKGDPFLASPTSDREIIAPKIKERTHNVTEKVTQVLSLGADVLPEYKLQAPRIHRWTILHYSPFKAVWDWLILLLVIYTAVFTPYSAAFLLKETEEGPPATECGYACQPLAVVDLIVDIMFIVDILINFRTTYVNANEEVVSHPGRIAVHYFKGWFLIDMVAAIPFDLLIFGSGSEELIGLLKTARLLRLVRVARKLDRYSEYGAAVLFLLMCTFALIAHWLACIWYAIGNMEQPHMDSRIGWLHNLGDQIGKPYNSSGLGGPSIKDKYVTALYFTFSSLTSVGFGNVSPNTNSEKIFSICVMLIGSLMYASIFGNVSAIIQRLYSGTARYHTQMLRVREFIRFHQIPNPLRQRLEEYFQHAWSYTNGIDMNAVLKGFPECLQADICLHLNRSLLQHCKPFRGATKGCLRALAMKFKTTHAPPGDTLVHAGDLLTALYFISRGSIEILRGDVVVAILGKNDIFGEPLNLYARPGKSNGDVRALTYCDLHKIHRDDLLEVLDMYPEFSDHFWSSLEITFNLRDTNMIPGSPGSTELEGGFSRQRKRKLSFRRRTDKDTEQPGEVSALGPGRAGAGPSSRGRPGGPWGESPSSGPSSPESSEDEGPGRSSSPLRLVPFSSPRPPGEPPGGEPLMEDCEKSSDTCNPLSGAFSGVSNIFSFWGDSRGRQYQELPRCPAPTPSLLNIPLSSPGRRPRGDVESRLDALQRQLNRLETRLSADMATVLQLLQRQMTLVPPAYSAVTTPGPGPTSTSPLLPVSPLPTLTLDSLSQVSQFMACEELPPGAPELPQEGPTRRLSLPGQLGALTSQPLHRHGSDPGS
Chain of DNA gyrase subunit A/DNA gyrase subunit B (P9WG45 whole entry): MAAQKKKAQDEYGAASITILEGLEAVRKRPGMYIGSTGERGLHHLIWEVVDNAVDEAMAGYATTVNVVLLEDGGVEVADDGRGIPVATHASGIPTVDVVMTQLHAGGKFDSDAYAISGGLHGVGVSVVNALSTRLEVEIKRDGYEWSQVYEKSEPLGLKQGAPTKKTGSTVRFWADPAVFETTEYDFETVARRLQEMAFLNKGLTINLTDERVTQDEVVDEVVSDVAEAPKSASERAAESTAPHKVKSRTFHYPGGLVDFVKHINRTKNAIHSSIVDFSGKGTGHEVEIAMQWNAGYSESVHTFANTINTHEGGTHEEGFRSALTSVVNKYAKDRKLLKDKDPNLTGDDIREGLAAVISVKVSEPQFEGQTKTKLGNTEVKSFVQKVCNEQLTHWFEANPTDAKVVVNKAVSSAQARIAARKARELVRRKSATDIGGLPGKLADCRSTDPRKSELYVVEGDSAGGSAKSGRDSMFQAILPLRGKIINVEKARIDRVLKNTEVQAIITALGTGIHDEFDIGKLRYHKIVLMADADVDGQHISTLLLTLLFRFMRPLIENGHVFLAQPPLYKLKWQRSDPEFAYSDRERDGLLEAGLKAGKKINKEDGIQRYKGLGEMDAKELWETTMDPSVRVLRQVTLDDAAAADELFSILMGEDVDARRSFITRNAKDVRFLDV
Chain of DNA gyrase subunit A/DNA gyrase subunit B (P9WG47 whole entry): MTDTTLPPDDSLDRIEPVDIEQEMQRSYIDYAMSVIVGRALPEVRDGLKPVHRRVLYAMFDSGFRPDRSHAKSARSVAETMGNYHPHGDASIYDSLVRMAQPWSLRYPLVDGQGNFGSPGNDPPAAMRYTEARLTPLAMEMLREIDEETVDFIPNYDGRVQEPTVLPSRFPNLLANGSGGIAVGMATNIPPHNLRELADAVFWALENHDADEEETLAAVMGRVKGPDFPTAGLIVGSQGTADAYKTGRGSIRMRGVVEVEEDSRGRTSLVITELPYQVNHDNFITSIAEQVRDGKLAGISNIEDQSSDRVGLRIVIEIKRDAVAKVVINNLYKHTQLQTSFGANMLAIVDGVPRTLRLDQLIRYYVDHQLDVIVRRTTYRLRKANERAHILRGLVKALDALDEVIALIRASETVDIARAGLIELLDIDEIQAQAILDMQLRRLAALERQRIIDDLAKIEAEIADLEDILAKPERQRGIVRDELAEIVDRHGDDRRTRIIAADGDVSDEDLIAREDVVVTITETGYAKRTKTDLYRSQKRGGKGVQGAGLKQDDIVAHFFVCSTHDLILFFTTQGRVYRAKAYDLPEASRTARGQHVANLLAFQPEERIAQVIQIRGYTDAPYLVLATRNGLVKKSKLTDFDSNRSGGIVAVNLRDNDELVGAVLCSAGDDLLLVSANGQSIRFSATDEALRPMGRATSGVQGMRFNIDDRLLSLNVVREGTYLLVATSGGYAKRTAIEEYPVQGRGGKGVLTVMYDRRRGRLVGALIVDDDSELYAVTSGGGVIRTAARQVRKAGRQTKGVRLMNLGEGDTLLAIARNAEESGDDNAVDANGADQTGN

| Structure (SMILES) | MIC [1] [µM] | further results |
| --- | --- | --- |
| Cn1ccc(COc2cnc3ccc(=O)n(CCN4CCC(NCc5ccc6c(n5)NC(=O)CO6)CC4)c3c2)n1 | 0.25 (≈ 0.136 µg/mL) |  |
| O=C1COc2ccc(CNC3CCN(CCn4c(=O)ccc5ccc(Oc6cncnc6)nc54)CC3)nc2N1 | 0.25 (≈ 0.132 µg/mL) | IC50 [2]: 173 nM; IC50 [3]: > 224000 nM |
| O=C1COc2ccc(CNC3CCN(CCn4c(=O)ccc5ncc(O[C@@H]6CCOC6)cc54)CC3)nc2N1 | 0.25 (≈ 0.13 µg/mL) |  |
| O=C1COc2ccc(CNC3CCN(CCn4c(=O)ccc5ncc(Oc6ccon6)cc54)CC3)nc2N1 | 0.25 (≈ 0.129 µg/mL) | permeability (Caco-2): permeable; solubility [4]: 665 µM (≈ 344 µg/mL) |
| Cc1cc2[nH]c(C3CCN(CCn4c(=O)ccc5ncc(Oc6ccc(S(N)(=O)=O)cc6)cc54)CC3)nc2cc1C#N | 0.25 (≈ 0.146 µg/mL) | IC50 [3]: > 33000 nM |
| COc1cnc2ccc(=O)n(CCN3CCC(c4nc5cc(Cl)ccc5[nH]4)CC3)c2c1 | 0.25 (≈ 0.109 µg/mL) |  |
| O=C1COc2ccc(CNC3CCN(CCn4c(=O)ccc5ncc(OCc6ccccn6)cc54)CC3)nc2N1 | 0.5 (≈ 0.271 µg/mL) |  |
| NS(=O)(=O)c1ccc(Oc2cnc3ccc(=O)n(CCN4CCC(c5nc6cc(Cl)ccc6[nH]5)CC4)c3c2)cc1 | 0.19 (≈ 0.11 µg/mL) | permeability (Caco-2): impermeable |
| O=C1COc2ccc(CNC3CCN(CCn4c(=O)ccc5ccc(Cl)nc54)CC3)nc2N1 | 0.19 (≈ 0.0891 µg/mL) | IC50 [2]: 110 nM |
| O=C1COc2ccc(CNC3CCN(CCn4c(=O)ccc5ncc(Oc6cccnc6)cc54)CC3)nc2N1 | 0.06 (≈ 0.0317 µg/mL) | permeability (Caco-2): permeable; solubility [4]: 665 µM (≈ 351 µg/mL) |
| O=C1COc2ccc(CNC3CCN(CCn4c(=O)ccc5ncc(O[C@H]6CCOC6)cc54)CC3)nc2N1 | 0.5 (≈ 0.26 µg/mL) |  |
| COc1ccc2ccc(=O)n(CCN3CCC(NCc4ccc5c(n4)NC(=O)CO5)CC3)c2n1 | 0.25 (≈ 0.116 µg/mL) | IC50 [3]: 23000 nM |
| O=C1COc2ccc(CN[C@@H]3CCN(CCn4c(=O)ccc5ncc(Oc6ccon6)cc54)C[C@@H]3F)nc2N1 | 0.25 (≈ 0.134 µg/mL) | permeability (Caco-2): permeable; solubility [4]: 665 µM (≈ 356 µg/mL) |
| Cc1ncc(CNC2CCN(CCn3c(=O)ccc4ncc(F)cc43)CC2)cc1Cl | 0.19 (≈ 0.0817 µg/mL) | IC50 [2]: 250 nM |
| NS(=O)(=O)c1ccc(Oc2ccc3ccc(=O)n(CCN4CCC(NCc5ccc6c(n5)NC(=O)CO6)CC4)c3n2)cc1 | 0.03 (≈ 0.0182 µg/mL) | permeability (Caco-2): impermeable; IC50 [3]: > 100000 nM |
| O=C(O)c1cn(C2CC2)c2cc(N3CCNCC3)c(F)cc2c1=O [CIPROFLOXACIN] | 0.5 (≈ 0.166 µg/mL) |  |
| O=C1COc2ccc(CNC3CCN(CCn4c(=O)ccc5ncc(OCc6cccnn6)cc54)CC3)nc2N1 | 1 (≈ 0.543 µg/mL) |  |
| O=C1COc2ccc(CNC3CCN(CCn4c(=O)ccc5ccc(Oc6cccnc6)nc54)CC3)nc2N1 | 0.06 (≈ 0.0317 µg/mL) | IC50 [2]: 104 nM |
| NNC(=O)c1ccncc1 [ISONIAZID] | 0.06 (≈ 0.00823 µg/mL) |  |
| O=C1COc2ccc(CN[C@@H]3CCN(CCn4c(=O)ccc5ncc(Oc6cccnc6)cc54)C[C@@H]3F)nc2N1 | 0.25 (≈ 0.136 µg/mL) | LCK [5]: >1; permeability (Caco-2): permeable; IC50 [2]: 800 nM; LCK [6]: 1; solubility [4]: 665 µM (≈ 363 µg/mL); Activity [7]: Dose-dependent effect |
| Cc1ncc(CNC2CCN(CCn3c(=O)ccc4ncc(Oc5ccc(S(N)(=O)=O)cc5)cc43)CC2)cc1Cl | 0.06 (≈ 0.035 µg/mL) | IC50 [3]: 82000 nM |
| Cc1ncc(CNC2CCN(CCn3c(=O)ccc4ncc(Oc5ccc(S(N)(=O)=O)cc5)cc43)CC2)cc1C#N | 0.06 (≈ 0.0344 µg/mL) | IC50 [3]: > 100000 nM |
| O=C1COc2ccc(CNC3CCN(CCn4c(=O)ccc5ccc(Oc6ccon6)nc54)CC3)nc2N1 | 0.25 (≈ 0.129 µg/mL) |  |
| COc1c(N2C[C@@H]3CCCN[C@@H]3C2)c(F)cc2c(=O)c(C(=O)O)cn(C3CC3)c12 [MOXIFLOXACIN] | 0.13 (≈ 0.0522 µg/mL) |  |
| O=C1COc2ccc(CNC3CCN(CCn4c(=O)ccc5ncc(Oc6cncc(F)c6)cc54)CC3)nc2N1 | 0.25 (≈ 0.136 µg/mL) |  |
